{"source": "patent US20130078317A1", "about": "“ZINC-CONTAINING COMPOSITIONS FOR THE TREATMENT OF DISEASES, ILLNESSES AND SYNDROMES ASSOCIATED WITH EXPOSURE TO PORE FORMING TOXINS” (priority 2009, published 2013)", "key": {"[1]": {"system": "hemolytic toxins", "settings": "10 mM D-lactulose; cited from earlier work"}, "[2]": {"system": "Chironex fleckeri venom in isolated red blood cells (2% RBC)", "format": "cell-based, human"}, "[3]": {"system": "Chironex fleckeri venom", "experiment": "Mouse envenomation model with echocardiography/electrocardiography, survival, plasma hemoglobin and potassium (Example 6)", "format": "in vivo"}, "[4]": {"system": "bacterial porin", "experiment": "Human subjects exposed to a bacterial porin, intravenous (Example 11)", "format": "in vivo", "settings": "IV 2.5 to 4 mg per day", "description": "In this Example, human subjects are treated with zinc gluconate intravenously after being exposed to a bacterial porin. […] Samples are removed to monitor levels of potassium, cytokines, histamine, and catecholamine, in the blood serum."}, "[5]": {"system": "Chironex fleckeri venom in whole blood", "format": "cell-based, human"}, "[6]": {"system": "cubozoan porin", "experiment": "Human subjects envenomated by a cubozoan porin, subcutaneous bolus then continuous IV (Example 9)", "format": "in vivo", "settings": "subcutaneous bolus 5 mL of 100 mM, then IV 5 mM"}, "[7]": {"system": "Chironex fleckeri venom in whole blood", "experiment": "Hemolysis induced by Chironex fleckeri venom in whole blood", "format": "cell-based, human", "settings": "5 mM zinc gluconate, compared to untreated cells, FIG. 6"}, "[8]": {"system": "Carybdea alata venom in isolated red blood cells (2% RBC)", "experiment": "Hemolysis induced by Carybdea alata venom in 2% RBC", "format": "cell-based, human"}, "[9]": {"system": "mushroom pore-forming toxin", "experiment": "Human subjects exposed to a mushroom pore-forming toxin, intravenous (Example 13)", "format": "in vivo", "settings": "IV 2.5 to 4 mg per day", "description": "In this Example, human subjects are treated with zinc gluconate intravenously after being exposed to a mushroom pore-forming toxin. […] Samples are removed to monitor levels of potassium, cytokines, histamine, and catecholamine, in the blood serum."}, "[10]": {"system": "Carybdea alata venom in isolated red blood cells (2% RBC)", "format": "cell-based, human"}, "[11]": {"system": "Chironex fleckeri venom in whole blood", "experiment": "Catecholamine and histamine response in whole blood exposed to Chironex fleckeri venom", "format": "cell-based, human", "settings": "CF venom, 5 mM zinc gluconate, FIG. 8"}, "[12]": {"system": "cubozoan porin", "experiment": "Human subjects envenomated by a cubozoan porin, intravenous zinc gluconate (Example 8)", "format": "in vivo", "settings": "IV infusion 2.5 to 4 mg per day"}, "[13]": {"system": "viral porin", "experiment": "Human subjects exposed to a viral porin, intravenous (Example 12)", "format": "in vivo", "settings": "IV 2.5 to 4 mg per day", "description": "In this Example, human subjects are treated with zinc gluconate intravenously after being exposed to a viral porin. […] Samples are removed to monitor levels of potassium, cytokines, histamine, and catecholamine, in the blood serum."}, "[14]": {"system": "Chironex fleckeri venom in whole blood", "experiment": "Cytokine production in whole blood exposed to Chironex fleckeri venom", "format": "cell-based, human", "settings": "CF venom, 5 mM zinc gluconate, FIG. 7"}, "[15]": {"system": "cubozoan porin", "settings": "pig, in vivo"}, "[16]": {"system": "cubozoan porin", "experiment": "Human subjects envenomated by a cubozoan porin, transdermal patch (Example 10)", "format": "in vivo", "settings": "iontophoresis, 5 mM at 40 mAmp/min"}, "[17]": {"settings": "mice, Zn Gluc then 2000 U venom IV, cardiac blood at death"}}, "note": "Values joined by “and” are separate entries in the source; they are usually repeats but may differ in a detail not shown here. Equal entries are not always repeated. “Also recorded” adds a separate entry of the source.", "data": [{"compound": "OC[C@H]1O[C@@H](O[C@@H]2[C@@H](CO)O[C@](O)(CO)[C@H]2O)[C@H](O)[C@@H](O)[C@H]1O", "note": "[D-lactulose]", "values": [{"measurement": "Hemolysis", "setting": "[1]", "result": "dramatic absence of hemolysis"}]}, {"compound": "zinc gluconate", "values": [{"measurement": "potassium efflux induced by Chironex fleckeri venom", "setting": "[2]", "result": "fully inhibited"}, {"measurement": "EKG recovery", "setting": "[3]; Mouse 2010-6-09-2, FIG. 10", "result": "recovered within thirty seconds"}, {"measurement": "time of cessation of ventricular contraction", "setting": "[3]; Mouse 2010-6-09-2, FIG. 10", "result": 10.5, "unit": "min"}, {"measurement": "time of recovery of ventricular contraction", "setting": "[3]; Mouse 2010-6-09-2, FIG. 10", "result": 11, "unit": "min"}, {"measurement": "rebounds of ventricular contraction subsequent to periods of pulseless electrical activity (PEA)", "setting": "[3]; mice pre-injected with zinc gluconate, in three mice", "result": "frequently observed"}, {"measurement": "Hemolysis", "setting": "[3]; [17]", "result": "6% and 4% and 2% and 3%"}, {"measurement": "Plasma Hgb", "setting": "[3]; [17]", "result": "860 mg/100 mL and 673 mg/100 mL and 471 mg/100 mL"}, {"measurement": "survival rates", "setting": "[3]; relative to the untreated mice, FIG. 11", "result": "higher survival rates"}, {"measurement": "duration of survival post-envenomation (survival times)", "setting": "[3]; relative to the untreated mice, intravenous, FIG. 11, P<0.0001", "result": "longer durations of survival; also recorded: significantly prolonged"}, {"measurement": "normal EKG conductive sequences maintained", "setting": "[3]; zinc treated animals exposed to cubozoan PFT", "result": "for longer periods"}, {"measurement": "health of the subject", "setting": "[4]", "result": "improve the health of the subject"}, {"measurement": "severity of physiological symptoms associated with porin exposure", "setting": "[4]", "result": "reduce the severity of physiological symptoms"}, {"measurement": "potassium efflux induced by Chironex fleckeri venom", "setting": "[5]", "result": "inhibited"}, {"measurement": "likelihood of a lethal outcome", "setting": "[6]", "result": "decrease the likelihood a lethal outcome"}, {"measurement": "severity of physiological symptoms associated with the venom poisoning", "setting": "[6]", "result": "reduce the severity of physiological symptoms"}, {"measurement": "hemolysis induced by Chironex fleckeri venom", "setting": "[7]", "result": "substantially less severe hemolysis"}, {"measurement": "hemolysis induced by Carybdea alata venom", "setting": "[8]; 2% RBC, 5 mM zinc gluconate", "result": "substantially inhibited"}, {"measurement": "decrease of the total hemolytic capacity of the venom dose", "setting": "[8]; venom dose 6.4 U/ml", "result": "more than 10 fold"}, {"measurement": "health of the subject", "setting": "[9]", "result": "improve the health of the subject"}, {"measurement": "severity of physiological symptoms associated with porin exposure", "setting": "[9]", "result": "reduce the severity of physiological symptoms"}, {"measurement": "potassium efflux induced by Carybdea alata venom", "setting": "[10]", "result": "fully inhibited"}, {"measurement": "catecholamine response", "setting": "[11]", "result": "reduced"}, {"measurement": "histamine response", "setting": "[11]", "result": "reduced"}, {"measurement": "likelihood of a lethal outcome", "setting": "[12]", "result": "decrease the likelihood a lethal outcome"}, {"measurement": "severity of physiological symptoms associated with the venom poisoning", "setting": "[12]", "result": "reduce the severity of physiological symptoms"}, {"measurement": "health of the subject", "setting": "[13]", "result": "improve the health of the subject"}, {"measurement": "severity of physiological symptoms associated with porin exposure", "setting": "[13]", "result": "reduce the severity of physiological symptoms"}, {"measurement": "production of EGF", "setting": "[14]", "result": "reduced"}, {"measurement": "production of G-CSF", "setting": "[14]", "result": "reduced"}, {"measurement": "production of GRO", "setting": "[14]", "result": "reduced"}, {"measurement": "production of IFNα2", "setting": "[14]", "result": "reduced"}, {"measurement": "production of PDGF-AA", "setting": "[14]", "result": "reduced"}, {"measurement": "production of TNFα", "setting": "[14]", "result": "reduced"}, {"measurement": "severity of symptoms", "setting": "[15]", "result": "reduce the severity of symptoms"}, {"measurement": "survival", "setting": "[15]", "result": "siginificantly improve survival"}, {"measurement": "likelihood of a lethal outcome", "setting": "[16]", "result": "decrease the likelihood a lethal outcome"}, {"measurement": "severity of physiological symptoms associated with the venom poisoning", "setting": "[16]", "result": "reduce the severity of physiological symptoms"}]}]}
